Assay results as given in patent US6635771B2, “N-benzhydryl indole compounds” (Wyeth, priority 2001, dated 2003).
pIC50: −log10 of the molar value.

Biological target: T1, cPLA2 (Homo sapiens, UniProt P47712)
T1 sequence (P47712 1-749): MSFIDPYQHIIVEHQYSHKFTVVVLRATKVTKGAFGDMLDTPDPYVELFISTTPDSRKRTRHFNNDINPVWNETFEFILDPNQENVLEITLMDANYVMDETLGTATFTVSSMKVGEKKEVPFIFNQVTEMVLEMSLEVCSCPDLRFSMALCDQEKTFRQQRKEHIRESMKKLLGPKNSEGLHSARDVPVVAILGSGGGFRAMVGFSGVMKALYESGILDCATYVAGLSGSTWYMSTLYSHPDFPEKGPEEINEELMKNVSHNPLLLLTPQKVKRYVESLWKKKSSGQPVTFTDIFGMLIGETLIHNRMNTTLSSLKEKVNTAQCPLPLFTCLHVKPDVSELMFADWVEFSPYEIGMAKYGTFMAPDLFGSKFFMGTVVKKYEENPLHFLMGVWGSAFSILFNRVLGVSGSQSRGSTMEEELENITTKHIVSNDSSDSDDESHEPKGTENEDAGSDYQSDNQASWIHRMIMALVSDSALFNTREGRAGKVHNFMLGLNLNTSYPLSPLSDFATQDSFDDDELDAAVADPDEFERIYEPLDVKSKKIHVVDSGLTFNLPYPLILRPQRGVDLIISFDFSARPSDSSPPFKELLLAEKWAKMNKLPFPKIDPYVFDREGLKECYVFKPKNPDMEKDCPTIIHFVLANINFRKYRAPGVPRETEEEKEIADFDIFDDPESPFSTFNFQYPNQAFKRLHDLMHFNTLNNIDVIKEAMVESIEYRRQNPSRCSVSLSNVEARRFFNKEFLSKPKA
Assay: Coumarine Assay
Format: biochemical
Conditions: 60 μM 7-hydroxycoumarinyl 6-heptenoate substrate, 4 μg cPLA2, pH 7.5, fluorescence ex 360 nm / em 460 nm; read-out: Coumarin IC50

| Compound | pIC50 |
| --- | --- |
| O=C(O)c1ccc(OCCc2c(CCNS(=O)(=O)Cc3nc4ccccc4o3)n(C(c3ccccc3)c3ccccc3)c3ccc(Cl)cc23)cc1 [Example 110, 4-{2-[1-Benzhydryl-2-(2-{[(1,3-benzoxazol-2-ylmethyl)sulfonyl]amino}ethyl)-5-chloro-1H-indol-3-yl]ethoxy}benzoic acid] | 6.30 |
| O=C(O)c1ccc(OCCc2c(CCNS(=O)(=O)Cc3ccsc3)n(C(c3ccccc3)c3ccccc3)c3ccc(Cl)cc23)cc1 [Example 112, 4-{2-[1-Benzhydryl-5-chloro-2-(2-{[(3-thienylmethyl)sulfonyl]amino}ethyl)-1H-indol-3-yl]ethoxy}benzoic acid] | 5.92 |
| CC1CCCN1CCS(=O)(=O)NCCc1c(CCOc2ccc(C(=O)O)cc2)c2cc(Cl)ccc2n1C(c1ccccc1)c1ccccc1 (stereo not drawn) [Example 113, 4-[2-(1-Benzhydryl-5-chloro-2-{2-[2-(2-methyl-pyrrolidin-1-yl)-ethanesulfonylamino]-ethyl}-1H-indol-3-yl)-ethoxy]-benzoic acid] | 5.89 |
| CC1CCCCN1CCS(=O)(=O)NCCc1c(CCOc2ccc(C(=O)O)cc2)c2cc(Cl)ccc2n1C(c1ccccc1)c1ccccc1 (stereo not drawn) [Example 114, 4-[2-(1-Benzhydryl-5-chloro-2-{2-[2-(2-methyl-piperidin-1-yl)-ethanesulfonylamino]-ethyl}-1H-indol-3-yl)-ethoxy]-benzoic acid] | 5.96 |
| CC1CCC(C)N1CCS(=O)(=O)NCCc1c(CCOc2ccc(C(=O)O)cc2)c2cc(Cl)ccc2n1C(c1ccccc1)c1ccccc1 (stereo not drawn) [Example 115, 4-[2-(1-Benzhydryl-5-chloro-2-{2-[2-(2,5-dimethyl-pyrrolidin-1-yl)-ethanesulfonylamino]-ethyl}-1H-indol-3-yl)-ethoxy]-benzoic acid] | 6.05 |
| O=C(O)c1ccc(OCCc2c(CCNS(=O)(=O)CCN3CCCCC3)n(C(c3ccccc3)c3ccccc3)c3ccc(Cl)cc23)cc1 [Example 117] | 5.80 |
| Cc1ccccc1SCS(=O)(=O)NCCc1c(CCOc2ccc(C(=O)O)cc2)c2cc(Cl)ccc2n1C(c1ccccc1)c1ccccc1 [Example 118, 4-{2-[1-benzhydryl-5-chloro-2-(2-o-tolylsulfanylmethanesulfonylamino-ethyl)-1H-indol-3-yl]-ethoxy}-benzoic acid] | 6.40 |
| O=C(O)c1ccc(OCCc2c(CCNS(=O)(=O)CSc3ccccc3Cl)n(C(c3ccccc3)c3ccccc3)c3ccc(Cl)cc23)cc1 [Example 119] | 6.40 |
| O=C(O)c1ccc(OCCc2c(CCNS(=O)(=O)CSc3c(Cl)cccc3Cl)n(C(c3ccccc3)c3ccccc3)c3ccc(Cl)cc23)cc1 [Example 120, 4-(2-{1-benzhydryl-5-chloro-2-[2-(2,6-dichloro-phenylsulfanylmethanesulfonylamino)-ethyl]-1H-indol-3-yl}-ethoxy)-benzoic acid] | 6.40 |
| COc1ccc(OC)c(SCS(=O)(=O)NCCc2c(CCOc3ccc(C(=O)O)cc3)c3cc(Cl)ccc3n2C(c2ccccc2)c2ccccc2)c1 [Example 121, 4-(2-{1-benzhydryl-5-chloro-2-[2-(2,5-dimethoxy-phenylsulfanylmethanesulfonylamino)-ethyl]-1H-indol-3-yl}-ethoxy)-benzoic acid] | 6.34 |
| O=C(O)c1ccc(OCCc2c(CCNS(=O)(=O)CCN3CCC(O)C3)n(C(c3ccccc3)c3ccccc3)c3ccc(Cl)cc23)cc1 (stereo not drawn) [Example 122, 4-[2-(1-benzhydryl-5-chloro-2-{2-[2-(3-hydroxy-pyrrolidine-1-yl)-ethanesulfonylamino]-ethyl}-1H-indol-3-yl)-ethoxy]-benzoic acid] | 5.60 |
| O=C(O)c1ccc(OCCc2c(CCNS(=O)(=O)CCN3CCC(O)CC3)n(C(c3ccccc3)c3ccccc3)c3ccc(Cl)cc23)cc1 [Example 123, 4-[2-(1-Benzhydryl-5-chloro-2-{2-[2-(4-hydroxy-piperidin-1-yl)-ethanesulfonylamino]-ethyl}-1H-indol-3-yl)-ethoxy]-benzoic acid] | 5.77 |
| CN(C)CC1CCCCN1CCS(=O)(=O)NCCc1c(CCOc2ccc(C(=O)O)cc2)c2cc(Cl)ccc2n1C(c1ccccc1)c1ccccc1 (stereo not drawn) [Example 124, 4-[2-(1-Benzhydryl-5-chloro-2-{2-[2-(2-dimethylaminomethyl-piperidin-1-yl)-ethanesulfonylamino]-ethyl}-1H-indol-3-yl)-ethoxy]-benzoic acid] | 6.10 |
| O=C(O)c1ccc(CNCc2c(CCNS(=O)(=O)Cc3ccccc3)n(C(c3ccccc3)c3ccccc3)c3ccc(Cl)cc23)cc1 [Example 134, 4-({[(1-benzhydryl-2-{2-[(benzylsulfonyl)amino]ethyl}-5-chloro-1H-indol-3-yl)methyl]amino}methyl)benzoic acid] | < 6.00 |
| O=C(O)c1ccc(OCCc2c(CCNS(=O)(=O)CCN3CCCC3)n(C(c3ccccc3)c3ccccc3)c3ccc(Cl)cc23)cc1 [Example 139, 4-(2-{1-Benzhydryl-5-chloro-2-[2-(2-pyrrolidin-1-yl-ethanesulfonylamino)-ethyl]-1H-indol-3-yl}-ethoxy)-benzoic acid] | 5.77 |

Next, values leading:

| pIC50 | Compound |
| --- | --- |
| 6.48 | O=C(O)c1ccc(OCCc2c(CCNS(=O)(=O)Cc3cc(Cl)cc(Cl)c3)n(C(c3ccccc3)c3ccccc3)c3cc(Cl)ccc23)cc1 [Example 107, 4-[2-{1-Benzhydryl-6-chloro-2-[2-(3,5-dichloro-phenylmethanesulfonylamino)-ethyl]-1H-indol-3-yl}-ethoxy)-benzoic acid] |
| 6.82 | N#Cc1ccccc1CS(=O)(=O)NCCc1c(CCOc2ccc(C(=O)O)cc2)c2cc(Cl)ccc2n1C(c1ccccc1)c1ccccc1 [Example 108, 4-{2-[1-Benzhydryl-5-chloro-2-(2-{[(2-cyanobenzyl)sulfonyl]amino}ethyl)-1H-indol-3-yl]ethoxy}benzoic acid] |
| 6.40 | O=C(O)c1ccc(OCCc2c(CCNS(=O)(=O)CC3CCCCO3)n(C(c3ccccc3)c3ccccc3)c3ccc(Cl)cc23)cc1 (stereo not drawn) [Example 109, 4-{2-[1-Benzhydryl-5-chloro-2-(2-{[(tetrahydro-2H-pyran-2-ylmethyl)sulfonyl]amino}ethyl)-1H-indol-3-yl]ethoxy}benzoic acid] |
| 6.70 | O=C(O)c1ccc(CCCc2c(CCNS(=O)(=O)Cc3c(F)cccc3F)n(C(c3ccccc3)c3ccccc3)c3ccc(Cl)cc23)cc1 [Example 126, 4-{3-[1-benzhydryl-5-chloro-2-{2-([(2,6-difluorobenzyl)sulfonyl]amino}ethyl)-1H-indol-3-yl]propyl}benzoic acid] |
| 6.70 | O=C(O)c1ccc(CCCc2c(CCNS(=O)(=O)Cc3ccc(Cl)c(Cl)c3)n(C(c3ccccc3)c3ccccc3)c3ccccc23)cc1 [Example 127, 4-{3-[1-benzhydryl-2-(2-{[(3,4-dichlorobenzyl)sulfonyl]amino}ethyl)-1H-indol-3-yl]propyl}benzoic acid] |
| 6.49 | O=C(O)c1ccc(CCCc2c(CCNS(=O)(=O)Cc3ccccc3)n(C(c3ccccc3)c3ccccc3)c3ccccc23)cc1 [Example 128, 4-[3-(1-benzhydryl-2-{2-[(benzylsulfonyl)amino]ethyl}-1H-indol-3-yl)propyl]benzoic acid] |
| 6.70 | O=C(O)CCc1ccc(S(=O)(=O)CCc2c(CCNS(=O)(=O)Cc3c(F)cccc3F)n(C(c3ccccc3)c3ccccc3)c3ccc(Cl)cc23)cc1 [Example 131, 3-[4-({2-[1-benzhydryl-5-chloro-2-(2-{[(2,6-difluorobenzyl)sulfonyl]amino}ethyl)-1H-indol-3-yl]ethyl}sulfonyl)phenyl]propanoic acid] |
| 6.70 | O=C(O)CCc1ccc(S(=O)(=O)CCc2c(CCNS(=O)(=O)Cc3ccccc3F)n(C(c3ccccc3)c3ccccc3)c3ccc(Cl)cc23)cc1 [Example 132, 3-[4-({2-[1-benzhydryl-5-chloro-2-(2-{[(2-fluorobenzyl)sulfonyl]amino}ethyl)-1H-indol-3-yl]ethyl}sulfonyl)phenyl] propanoic acid] |
| 7.05 | O=C(O)CCc1ccc(S(=O)(=O)CCc2c(CCNS(=O)(=O)Cc3ccccc3Cl)n(C(c3ccccc3)c3ccccc3)c3ccc(Cl)cc23)cc1 [Example 133, 3-[4-({2-[1-benzhydryl-5-chloro-2-(2-{[(2-chlorobenzyl)sulfonyl]amino}ethyl)-1H-indol-3-yl]ethyl}sulfonyl)phenyl]propanoic acid] |
| 6.70 | O=C(O)c1ccc(S(=O)(=O)CCc2c(CCNS(=O)(=O)Cc3ccccc3)n(C(c3ccccc3)c3ccccc3)c3ccc(Cl)cc23)cc1 [Example 135] |
| 6.74 | O=C(O)c1ccc(S(=O)(=O)CCc2c(CCNS(=O)(=O)Cc3ccccc3Cl)n(C(c3ccccc3)c3ccccc3)c3ccc(Cl)cc23)cc1 [Example 136] |
| 6.70 | O=C(O)c1ccc(S(=O)(=O)CCc2c(CCNS(=O)(=O)Cc3ccccc3F)n(C(c3ccccc3)c3ccccc3)c3ccc(Cl)cc23)cc1 [Example 138, 4-({2-[1-benzhydryl-5-chloro-2-(2-{[(2-fluorobenzyl)sulfonyl]amino}ethyl)-1H-indol-3-yl]ethyl}sulfonyl)benzoic acid] |
